In one assay the target is T1, full length human TREX1 (Homo sapiens, UniProt Q9NSU2).
T1 construct: N-terminally His-Tev tagged full length human TREX1; His-Tev (His tag with TEV protease site) (N); made in house; host or cells: E. coli
T1 sequence (Q9NSU2 1-314): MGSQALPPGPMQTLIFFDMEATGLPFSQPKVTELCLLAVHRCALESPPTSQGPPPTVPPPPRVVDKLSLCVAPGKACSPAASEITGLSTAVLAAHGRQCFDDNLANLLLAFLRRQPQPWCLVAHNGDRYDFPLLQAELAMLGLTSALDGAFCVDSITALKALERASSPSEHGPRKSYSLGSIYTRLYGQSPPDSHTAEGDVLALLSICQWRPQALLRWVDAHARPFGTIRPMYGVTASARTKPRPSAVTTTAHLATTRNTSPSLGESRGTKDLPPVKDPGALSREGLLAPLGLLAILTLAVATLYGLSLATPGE
Put plainly: TREX1 Biochemical Assay (fluorescence assay, degradation of dsDNA substrate). Conditions: 150 pM TREX1, 60 nM dsDNA substrate, 25 minutes at room temperature; read-out: hTREX1 EC50. The procedure, abridged:
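E. coli-expressed His-Tev-tagged full-length TREX1 (150 pM) with 60 nM quenched-fluorophore dsDNA in Tris pH 7.4, 150 mM NaCl, 100 mM MgCl2, 1% DMSO, 25 min room temperature, 10-point dose-response. EDTA stop; fluorescence 615 nm (ex 570 nm); IC50 from four-parameter fit against pre-quenched and no-inhibitor controls.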

Assay [1] deals with T2, human TREX2 (residues M44-A279) (Homo sapiens, UniProt Q9BQ50).
T2 construct: human TREX2 (residues M44-A279, expressed in E. coli); His-Tev (His tag with TEV protease site) (N); made in house; host or cells: E. coli
T2 sequence (Q9BQ50 44-279 isoform Q9BQ50-1): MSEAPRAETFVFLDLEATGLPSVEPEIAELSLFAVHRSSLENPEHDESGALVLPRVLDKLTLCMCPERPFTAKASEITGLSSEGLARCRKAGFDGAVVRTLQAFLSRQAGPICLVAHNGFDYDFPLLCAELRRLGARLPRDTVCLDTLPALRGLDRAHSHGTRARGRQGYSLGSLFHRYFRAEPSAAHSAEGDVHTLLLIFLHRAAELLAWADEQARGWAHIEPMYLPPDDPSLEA
The experiment in a line: TREX2 Biochemical Assay (fluorescence assay, degradation of dsDNA substrate). Conditions: 2.5 nM TREX2, 60 nM dsDNA substrate, 25 minutes at room temperature; read-out: hTREX2 EC50. The procedure, abridged:
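His-Tev-tagged human TREX2 (M44-A279, E. coli-expressed) at 2.5 nM final, with 60 nM TEX615/quencher-labelled dsDNA in pH 7.4 Tris buffer with MgCl2 and 1.0% DMSO, 10-point dose-response, 25 min at room temperature, then EDTA quench. Fluorescence read at 615 nm (ex 570 nm). IC50 from four-parameter fit against pre-quenched and no-inhibitor controls.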

`O=C(c1cccc(F)c1)N(Cc1cccnc1)[C@H](CO)c1ccc(Cl)cc1Cl` (single isomer, unassigned) [Compound 162]: the figures for the EC50 (at full length human TREX1; in assay [1]) were 0.1 to 1 µM and 10 to 100 µM, respectively.

For `COc1cc(C(=O)N(Cc2cccnc2)Cc2cc(Cl)cc(Cl)c2)cc(Br)c1O` [Compound 62], the values for the EC50 (on full length human TREX1; in assay [1]) were > 10 µM and > 100 µM, respectively.

For the compound `O=C(c1cccc(F)c1)N(Cc1cccnc1)Cc1ccccc1F` [Compound 129], the results for the 50% effective concentration (EC50) (on full length human TREX1; in assay [1]) were > 10 µM and > 100 µM, respectively.

For the compound `Cc1nocc1C(=O)N(Cc1cccnc1)Cc1ccc(Cl)cc1Cl` [Compound 140], the values for the concentration giving a half-maximal response (EC50) (at full length human TREX1; in assay [1]) were > 10 µM and > 100 µM, respectively.

For `O=C(C1CCC(O)CC1)N(Cc1cccnc1)Cc1ccc(Cl)cc1Cl` (centres unmarked) [Compound 86], the EC50 – broadly, the concentration needed to bring the measured effect to its halfway point – on full length human TREX1 was > 10 µM; in assay [1], > 100 µM.

`O=C(c1ccc(Oc2ccccc2)cc1)N(Cc1cccnc1)Cc1cc(Cl)cc(Cl)c1` [Compound 71]: the EC50 at full length human TREX1 is > 10 µM; in assay [1], > 100 µM.

Regarding `Cn1ncc(CN(Cc2ccc(C(=O)O)nc2)C(=O)c2cc(F)cc(F)c2)c1Cl` [Compound 184], the EC50 was in the range of 0.1 to 1 µM on full length human TREX1 and 10 to 100 µM in assay [1].

`NC(=O)c1ccc(CN(Cc2ccc(Cl)cc2Cl)C(=O)c2cccc(F)c2)cn1` [Compound 143, 5-({N-[(2,4-dichlorophenyl)methyl]-1-(3-fluorophenyl)formamido}methyl)pyridine-2-carboxamide]: the results for the EC50 (at full length human TREX1; in assay [1]) were > 10 µM and > 100 µM, respectively.

As for `O=C(c1ccccc1F)N(Cc1cccnc1)Cc1cc(Cl)cc(Cl)c1` [Compound 37], the EC50 is > 10 µM at full length human TREX1 and > 100 µM in assay [1].

Regarding `O=C(c1ccc(-c2ccccc2)cc1)N(Cc1cccnc1)Cc1ccc(Cl)cc1Cl` [Compound 24], the EC50 is > 10 µM on full length human TREX1 and > 100 µM in assay [1].

For the compound `O=C(O)CC[C@H](c1ccccc1Cl)N(Cc1cccnc1)C(=O)c1cc(F)cc(F)c1` [Compound 245], the figures for the EC50 (on full length human TREX1; in assay [1]) were 1 to 10 µM and 10 to 100 µM, respectively.

`Cn1ncc2ccc(CN(Cc3cccnc3)C(=O)c3cccc(F)c3)cc21` [Compound 128]: the EC50 was 1 to 10 µM on full length human TREX1 and > 100 µM in assay [1].

Consider `O=C(O)c1ccc(CN(Cc2ccccc2Cl)C(=O)c2cccc(F)c2)cn1` [Compound 151], for which the EC50 at full length human TREX1 is 0.1 to 1 µM; in assay [1] it was 10 to 100 µM.

For `CC[C@H](c1cccc(Cl)c1Cl)N(Cc1ccc(C(=O)O)nc1)C(=O)c1cc(F)cc(F)c1` [Compound 254], the EC50 was < 0.1 µM on full length human TREX1 and 1 to 10 µM in assay [1].

`C[C@@H](c1ccc(C(N)=O)cc1Cl)N(Cc1cccnc1)C(=O)c1cccc(F)c1` (single isomer, unassigned) [Compound 164]: the concentration giving a half-maximal response (EC50) was > 10 µM at full length human TREX1 and 10 to 100 µM in assay [1].

For `COc1nc(C(=O)O)ccc1CN(Cc1cccc(Cl)c1Cl)C(=O)c1cc(F)cc(F)c1` [Compound 210], the results for the EC50 (at full length human TREX1; in assay [1]) were 1 to 10 µM and 10 to 100 µM, respectively.

Turning to `O=C(O)c1ccc(CN(Cc2ccccc2C(F)(F)F)C(=O)c2cc(F)cc(F)c2)cn1` [Compound 172], the EC50 at full length human TREX1 was < 0.1 µM; in assay [1], 1 to 10 µM.

For `O=C(c1cc(F)cc(F)c1)N(Cc1cnc2c(=O)[nH]c(=O)[nH]c2c1)Cc1cccc(Cl)c1Cl` [Compound 181], the EC50 on full length human TREX1 is 0.1 to 1 µM; in assay [1] it was 1 to 10 µM.

With `O=C(c1ccc(F)c(Cl)c1)N(Cc1cccnc1)Cc1ccc(Cl)cc1Cl` [Compound 19], the figures for the EC50 (on full length human TREX1; in assay [1]) were 1 to 10 µM and > 100 µM, respectively.

For `O=C(c1ccc2ccccc2c1)N(Cc1cccnc1)Cc1ccc(Cl)cc1Cl` [Compound 28], the EC50 was > 10 µM on full length human TREX1 and > 100 µM in assay [1].

For the compound `O=C(c1cccc(F)c1)N(Cc1ccc(CO)nc1)Cc1ccc(Cl)cc1Cl` [Compound 145, N-(2,4-dichlorobenzyl)-3-fluoro-N-((6-(hydroxymethyl)pyridin-3-yl)methyl)benzamide], the figures for the concentration giving a half-maximal response (EC50) (on full length human TREX1; in assay [1]) were 1 to 10 µM and 10 to 100 µM, respectively.

As for `O=C(c1cccc(F)c1)N(Cc1cccnn1)Cc1ccc(Cl)cc1Cl` [Compound 107], the results for the EC50 (at full length human TREX1; in assay [1]) were > 10 µM and > 100 µM, respectively.

In the case of `O=C(O)c1ccc(CN(Cc2ccc(Cl)cc2Cl)C(=O)c2cc(F)cc(F)c2)cc1` [Compound 168], the EC50 fell in the range of 1 to 10 µM on full length human TREX1 and 10 to 100 µM in assay [1].

Consider `COCC(=O)N(Cc1cccnc1)Cc1ccc(Cl)cc1Cl` [Compound 92], for which the values for the EC50 (on full length human TREX1; in assay [1]) were > 10 µM and > 100 µM, respectively.

Consider `O=C(c1ccc(CO)cc1F)N(Cc1cccnc1)Cc1ccc(Cl)cc1Cl` [Compound 84], for which the EC50 was > 10 µM on full length human TREX1 and > 100 µM in assay [1].

In the case of `COc1cc(C(=O)N(Cc2cccnc2)Cc2cc(Cl)cc(Cl)c2)ccc1F` [Compound 50], the EC50 at full length human TREX1 is > 10 µM; in assay [1], > 100 µM.

In the case of `O=C(c1ccon1)N(Cc1cccnc1)Cc1ccc(Cl)cc1Cl` [Compound 118], the EC50 at full length human TREX1 was > 10 µM; in assay [1], > 100 µM.

Turning to `O=C(c1cccc(F)c1)N(Cc1cncnc1)Cc1ccc(Cl)cc1Cl` [Compound 106], the figures for the EC50 (on full length human TREX1; in assay [1]) were 1 to 10 µM and > 100 µM, respectively.

Take `COc1cc(C(=O)N(Cc2cccnc2)Cc2ccc(Cl)cc2Cl)cc(Br)c1O` [Compound 41]: the EC50 on full length human TREX1 is > 10 µM; in assay [1], > 100 µM.

With `COc1cc(C(=O)O)ncc1CN(Cc1cccc(Cl)c1Cl)C(=O)c1cc(F)cc(F)c1` [Compound 208], the values for the EC50 (on full length human TREX1; in assay [1]) were < 0.1 µM and < 1 µM, respectively.

Consider `O=C(O)c1ccc(CN(Cc2ccc3ncccc3c2Cl)C(=O)c2cc(F)cc(F)c2)cn1` [Compound 191], for which the values for the EC50 (on full length human TREX1; in assay [1]) were < 0.1 µM and 1 to 10 µM, respectively.

On to `O=C(c1cccc(F)c1)N(Cc1cccnc1)Cc1ccccc1Cl` [Compound 139], for which the EC50 at full length human TREX1 was 1 to 10 µM; in assay [1] it was > 100 µM.

Regarding `Cc1noc(C)c1C(=O)N(Cc1cccnc1)Cc1ccc(Cl)cc1Cl` [Compound 115], the values for the EC50 (at full length human TREX1; in assay [1]) were > 10 µM and > 100 µM, respectively.

`O=C(c1cccc(Cl)c1)N(Cc1cccnc1)Cc1cc(Cl)cc(Cl)c1` [Compound 34]: the EC50 on full length human TREX1 was > 10 µM; in assay [1], > 100 µM.

As to `O=C(c1cc(F)cc(F)c1)N(Cc1ccc(-c2noc(=O)[nH]2)nc1)Cc1cccc(Cl)c1Cl` [Compound 262], the values for the 50% effective concentration (EC50) (at full length human TREX1; in assay [1]) were 0.1 to 1 µM and 1 to 10 µM, respectively.

Consider `COC(=O)c1ccc(CN(Cc2ccc(Cl)cc2Cl)C(=O)c2cccc(F)c2)cn1` [Compound 141, methyl 5-({N-[(2,4-dichlorophenyl)methyl]-1-(3-fluorophenyl)formamido}methyl)pyridine-2-carboxylate], for which the figures for the EC50 (on full length human TREX1; in assay [1]) were > 10 µM and > 100 µM, respectively.

Consider `O=C(c1ccc(Oc2ccc(Cl)cc2)cc1)N(Cc1cccnc1)Cc1ccc(Cl)cc1Cl` [Compound 25], for which the EC50 at full length human TREX1 was 1 to 10 µM; in assay [1] it was > 100 µM.

Turning to `O=C(c1cocn1)N(Cc1cccnc1)Cc1ccc(Cl)cc1Cl` [Compound 113], the results for the EC50 (at full length human TREX1; in assay [1]) were > 10 µM and > 100 µM, respectively.

For the compound `O=C(O)c1ccc(CN(Cc2ccccc2OC(F)(F)F)C(=O)c2cc(F)cc(F)c2)cn1` [Compound 199], the EC50 on full length human TREX1 fell in the range of 1 to 10 µM; in assay [1], 10 to 100 µM.

Regarding `O=C(c1cccc(Oc2ccccc2)c1)N(Cc1cccnc1)Cc1cc(Cl)cc(Cl)c1` [Compound 66], the EC50 is > 10 µM at full length human TREX1 and > 100 µM in assay [1].
